Test results as given in patent US12448400B2, “KRAS G12D modulating compounds” (priority 2023, dated 2025).
pEC50, pIC50: −log10 of the molar value.

Assays:
GDP-loaded KRAS G12D = GDP-loaded KRAS G12D (Homo sapiens, UniProt P01116, G12D); assay: KRAS G12D (GDP) biochemical assay, TR-FRET probe displacement; format: binding; conditions: 0.5 nM enzyme, 30 min pre-incubation, 2 h incubation, TR-FRET ratio; read-out: G12D IC50
Experimental: Example A. KRAS G12D (GDP) Biochemical Assay
Compounds were tested for binding to GDP-loaded KRAS G12D in a 384-well assay format using a TR-FRET probe displacement assay in buffer consisting of 50 mM Hepes (pH 7.4), 150 mM NaCl, 5 mM MgCl2 and 0.005% Tween-20. […] Compounds were serially diluted (1:3) in DMSO. The LabCyte ECHO Acoustic dispenser system was used to pre-spot the assay plates (384-well Non-Binding Surface plates, Corning, Catalog #3824) with 50 nL of compound. The compounds were pre-incubated with 5 μL of 2× final enzyme concentration for 30 minutes before adding 5 μL of 2× final concentration of Eu-streptavidin and TR-FRET probe (10 μL final reaction volume). The plates were incubated at room temperature for 2 hours before measuring TR-FRET ratio on the Envision plate reader. IC50 values were defined as the compound concentration that causes a 50% decrease in TR-FRET ratio and were calculated using a sigmoidal dose-response model to generate curve fits.

GP2D (KRAS G12D) cells = assay: 2D cell viability assay (CellTiter-Glo); format: cell-based; conditions: 96 h; GP2D cells, 4 days, CellTiter-Glo luminescence; read-out: G12D 2D EC50
Experimental: Example B. 2D Cell Viability Assay
Compounds were tested in a 384-well format for their ability to inhibit the viability of GP2D (KRAS G12D) cells in 2D assays. Compounds were serially diluted (1:3) in DMSO. The LabCyte ECHO Acoustic dispenser system was used to pre-spot assay plates with 200 nL of test molecule per well. 1000 cells/well (40 μL volume per well) in RPMI medium with 10% FBS, and Penicillin-Streptomycin-Glutamine were plated in pre-spotted 384-well plates (Greiner, Catalog #781076) on the BioTEK EL406 liquid dispenser with a 5 μL dispensing cassette (BioTek 7170011). The plates were incubated at 37° C., 5% CO2 for 4 days before addition of CellTiter-Glo (CTG) reagent and measurement of luminescence signal. EC50 values were defined as the compound concentration that causes a 50% decrease in luminescence signal and were calculated using a sigmoidal dose-response model to generate curve fits.

GDP-loaded KRAS G12D, sequence (P01116 1-188 isoform P01116-2 G12D): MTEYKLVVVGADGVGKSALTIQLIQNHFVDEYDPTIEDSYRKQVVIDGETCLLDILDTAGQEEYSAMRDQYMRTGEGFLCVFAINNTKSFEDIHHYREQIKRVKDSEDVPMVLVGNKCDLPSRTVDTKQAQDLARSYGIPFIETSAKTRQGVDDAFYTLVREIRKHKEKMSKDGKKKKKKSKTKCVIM

For `C#Cc1c(F)ccc2cc(OCc3oc(=O)oc3C)cc(-c3nc4c5c(nc(OC[C@@]67CCCN6C[C@H](F)C7)nc5c3F)N3C[C@H]5CC[C@@H]([C@@H]3[C@@H](C)C4)N5Cc3oc(=O)oc3C)c12` [Example 2, 4-(((5-ethynyl-6-fluoro-4-((5S,5aS,6S,9R)-1-fluoro-12-(((2R,7aS)-2-fluorotetrahydro-1H-pyrrolizin-7a(5H)-yl)methoxy)-5-methyl-14-((5-methyl-2-oxo-1,3-dioxol-4-yl)methyl)-4,5,5a,6,7,8,9,10-octahydro-3,10a,11,13,14-pentaaza-6,9-methanonaphtho[1,8-ab]heptalen-2-yl)naphthalen-2-yl)oxy)methyl)-5-methyl-1,3-dioxol-2-one], the pIC50 (GDP-loaded KRAS G12D) was 7.40 and the pEC50 (GP2D (KRAS G12D) cells) was 9.62.

In the case of `C#Cc1c(F)ccc2cccc(-c3nc4c5c(nc(OC[C@@]67CCCN6C[C@H](F)C7)nc5c3F)N3C[C@H]5CC[C@@H]([C@H]3CCC4)N5Cc3oc(=O)oc3-c3ccccc3)c12` [Example 4, 4-(((6aR,7S,10R)-2-(8-ethynyl-7-fluoronaphthalen-1-yl)-1-fluoro-13-(((2R,7aS)-2-fluorotetrahydro-1H-pyrrolizin-7a(5H)-yl)methoxy)-5,6,6a,7,8,9,10,11-octahydro-4H-3,11a,12,14,15-pentaaza-7,10-methanocyclohepta[4,5]cycloocta[1,2,3-de]naphthalen-15-yl)methyl)-5-phenyl-1,3-dioxol-2-one], the pIC50 (GDP-loaded KRAS G12D) was 8.48 and the pEC50 (GP2D (KRAS G12D) cells) was 8.64.

For `C#Cc1c(F)ccc2cccc(-c3nc4c5c(nc(OC[C@@]67CCCN6C[C@H](F)C7)nc5c3F)N3C[C@H]5CC[C@@H]([C@H]3CCC4)N5Cc3c(C)oc(=O)n3C)c12` [Example 5, 4-(((6aR,7S,10R)-2-(8-ethynyl-7-fluoronaphthalen-1-yl)-1-fluoro-13-(((2R,7aS)-2-fluorotetrahydro-1H-pyrrolizin-7a(5H)-yl)methoxy)-5,6,6a,7,8,9,10,11-octahydro-4H-3,11a,12,14,15-pentaaza-7,10-methanocyclohepta[4,5]cycloocta[1,2,3-de]naphthalen-15-yl)methyl)-3,5-dimethyloxazol-2(3H)-one], the pIC50 (GDP-loaded KRAS G12D) was 8.33 and the pEC50 (GP2D (KRAS G12D) cells) was 7.11.

`C#Cc1c(F)ccc2cccc(-c3nc4c5c(nc(OC[C@@]67CCCN6C[C@H](F)C7)nc5c3F)N3C[C@H]5CC[C@@H]([C@H]3CCC4)N5Cc3oc(=O)oc3C(C)(C)C)c12` [Example 6, 4-(tert-butyl)-5-(((6aR,7S,10R)-2-(8-ethynyl-7-fluoronaphthalen-1-yl)-1-fluoro-13-(((2R,7aS)-2-fluorotetrahydro-1H-pyrrolizin-7a(5H)-yl)methoxy)-5,6,6a,7,8,9,10,11-octahydro-4H-3,11a,12,14,15-pentaaza-7,10-methanocyclohepta[4,5]cycloocta[1,2,3-de]naphthalen-15-yl)methyl)-1,3-dioxol-2-one] showed a pIC50 (GDP-loaded KRAS G12D) of 7.51 and a pEC50 (GP2D (KRAS G12D) cells) of 7.59.

With `C#Cc1c(F)ccc2cc(O)cc(-c3nc4c5c(nc(OC[C@@]67CCCN6C[C@H](F)C7)nc5c3F)N3C[C@H]5CC[C@@H]([C@@H]3[C@@H](C)C4)N5Cc3oc(=O)oc3C)c12` [Example 7, 4-(((5S,5aS,6S,9R)-2-(8-ethynyl-7-fluoro-3-hydroxynaphthalen-1-yl)-1-fluoro-12-(((2R,7aS)-2-fluorotetrahydro-1H-pyrrolizin-7a(5H)-yl)methoxy)-5-methyl-4,5,5a,6,7,8,9,10-octahydro-3,10a,11,13,14-pentaaza-6,9-methanonaphtho[1,8-ab]heptalen-14-yl)methyl)-5-methyl-1,3-dioxol-2-one] the pIC50 (GDP-loaded KRAS G12D) was 8.55 and the pEC50 (GP2D (KRAS G12D) cells) was 9.74.

With `Oc1cc(-c2nc3c4c(nc(OC[C@@]56CCCN5C[C@H](F)C6)nc4c2F)N2C[C@H]4CC[C@H](N4)[C@H]2CCC3)c2c(OC(F)(F)F)c(F)ccc2c1` [Example 18-P, 6-fluoro-4-((6aR,7S,10R)-1-fluoro-13-(((2R,7aS)-2-fluorotetrahydro-1H-pyrrolizin-7a(5H)-yl)methoxy)-5,6,6a,7,8,9,10,11-octahydro-4H-3,11a,12,14,15-pentaaza-7,10-methanocyclohepta[4,5]cycloocta[1,2,3-de]naphthalen-2-yl)-5-(trifluoromethoxy)naphthalen-2-ol] the pIC50 (GDP-loaded KRAS G12D) was 10.22 and the pEC50 (GP2D (KRAS G12D) cells) was 9.62.
